The values that follow come from US8163929B2, “Dihydropyridone amides as P2X7 modulators” (Roche Palo Alto LLC, priority 2008, dated 2012).

The target in this test is T1, P2X7 (UniProt Q99572).
T1 sequence (Q99572 1-595): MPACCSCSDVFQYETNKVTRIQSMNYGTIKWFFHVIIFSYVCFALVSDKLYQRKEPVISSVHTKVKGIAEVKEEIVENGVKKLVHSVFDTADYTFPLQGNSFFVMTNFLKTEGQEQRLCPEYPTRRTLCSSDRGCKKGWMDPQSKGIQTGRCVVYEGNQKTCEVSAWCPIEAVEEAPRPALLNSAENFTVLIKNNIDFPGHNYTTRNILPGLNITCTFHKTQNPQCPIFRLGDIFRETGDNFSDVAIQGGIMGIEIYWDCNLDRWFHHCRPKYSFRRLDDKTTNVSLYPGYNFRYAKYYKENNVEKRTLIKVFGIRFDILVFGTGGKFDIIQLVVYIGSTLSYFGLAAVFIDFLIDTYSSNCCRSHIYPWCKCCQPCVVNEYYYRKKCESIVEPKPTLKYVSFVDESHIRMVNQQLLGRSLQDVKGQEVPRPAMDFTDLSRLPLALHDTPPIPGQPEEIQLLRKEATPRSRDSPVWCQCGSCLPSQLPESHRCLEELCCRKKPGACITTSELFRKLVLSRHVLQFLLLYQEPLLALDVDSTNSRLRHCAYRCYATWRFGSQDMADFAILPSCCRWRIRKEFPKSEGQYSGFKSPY
Nature of the test: P2X7 activity of Table 1. The test is classed as cell-based. The note with it: pIC50 values for P2X7. In a few lines:
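FLIPR calcium flux with fluo-3 in 1321N1 cells expressing human P2X7 and HEK293 cells expressing rat P2X7, in HBSS with 2 mM CaCl2 and 2.5 mM probenecid. Antagonist pre-incubated 20 min at room temperature, then BzATP added (100 μM human, 5 μM rat). Peak response over 5 min normalised to 5 μM ionomycin.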

In turn, `Cc1ccc(-n2ncc(=O)n(CCO)c2=O)cc1NC(=O)C1=CN(C)C(=O)C[C@H]1c1ccc(F)cc1` [Compound 100, (S)-4-(4-Fluoro-phenyl)-1-methyl-6-oxo-1,4,5,6-tetrahydro-pyridine-3-carboxylic acid {5-[4-(2-hydroxy-ethyl)-3,5-dioxo-4,5-dihydro-3H-[1,2,4]triazin-2-yl]-2-methyl-phenyl}-amide] displayed a pIC50 of 7.5.

`Cc1cn(-c2ccc(C)c(NC(=O)C3=CNC(=O)C[C@H]3c3ccc(F)cc3)c2)nn1` [Compound 28, (S)-4-(4-Fluoro-phenyl)-6-oxo-1,4,5,6-tetrahydro-pyridine-3-carboxylic acid [2-methyl-5-(4-methyl-[1,2,3]triazol-1-yl)-phenyl]-amide] gave a pIC50 of 7.145.

The compound `COC[C@@H](O)Cn1nc(-c2ccc(C)c(NC(=O)C3=CNC(=O)C[C@H]3c3ccc(F)cc3)c2)cc1C` [Compound 91, (S)-4-(4-Fluoro-phenyl)-6-oxo-1,4,5,6-tetrahydro-pyridine-3-carboxylic acid {5-[1-((S)-2-hydroxy-3-methoxy-propyl)-5-methyl-1H-pyrazol-3-yl]-2-methyl-phenyl}-amide] came in with a pIC50 of 7.15.

As to `Cc1ccc(-n2cnnc2)cc1NC(=O)C1=CNC(=O)C[C@H]1c1ccc(F)cc1` [Compound 66, (S)-4-(4-Fluoro-phenyl)-6-oxo-1,4,5,6-tetrahydro-pyridine-3-carboxylic acid (2-methyl-5-[1,2,4]triazol-4-yl-phenyl)-amide], the pIC50 worked out at 5.55.

Regarding `Cc1cnn(-c2cc(NC(=O)C3=CN(C)C(=O)C[C@H]3c3ccc(F)cc3)c(C)cc2F)c(=O)c1` [Compound 145, (S)-4-(4-Fluoro-phenyl)-1-methyl-6-oxo-1,4,5,6-tetrahydro-pyridine-3-carboxylic acid [4-fluoro-2-methyl-5-(4-methyl-6-oxo-6H-pyridazin-1-yl)-phenyl]-amide], the negative logarithm of the IC50 (pIC50) stood at 7.265.

Compound `Cc1ccc(-n2ncc(=O)[nH]c2=O)cc1NC(=O)C1=CN(C)C(=O)C[C@H]1c1cccc(F)c1` [Compound 108, (S)-4-(3-Fluoro-phenyl)-1-methyl-6-oxo-1,4,5,6-tetrahydro-pyridine-3-carboxylic acid [5-(3,5-dioxo-4,5-dihydro-3H-[1,2,4]triazin-2-yl)-2-methyl-phenyl]-amide] registered a pIC50 of 7.145.

`Cc1ccc(-n2ncc(=O)n(C)c2=O)cc1NC(=O)C1=CNC(=O)C[C@H]1c1ccc(F)cc1` [Compound 37, (S)-4-(4-Fluoro-phenyl)-6-oxo-1,4,5,6-tetrahydro-pyridine-3-carboxylic acid [2-methyl-5-(4-methyl-3,5-dioxo-4,5-dihydro-3H-[1,2,4]triazin-2-yl)-phenyl]-amide] returned a pIC50 of 7.76.

With `Cc1ccc(-c2ccn(C)n2)cc1NC(=O)C1=CNC(=O)C[C@H]1c1cccc(F)c1` [Compound 63, (S)-4-(3-Fluoro-phenyl)-6-oxo-1,4,5,6-tetrahydro-pyridine-3-carboxylic acid [2-methyl-5-(1-methyl-1H-pyrazol-3-yl)-phenyl]-amide], the pIC50 came to 7.965.

`COC[C@H](O)Cn1nc(-c2ccc(C)c(NC(=O)C3=CN(C)C(=O)C[C@H]3c3ccc(F)cc3)c2)cc1C` [Compound 76, (S)-4-(4-Fluoro-phenyl)-1-methyl-6-oxo-1,4,5,6-tetrahydro-pyridine-3-carboxylic acid {5-[1-((R)-2-hydroxy-3-methoxy-propyl)-5-methyl-1H-pyrazol-3-yl]-2-methyl-phenyl}-amide] showed a pIC50 of 7.45.

As for `Cc1ccc(-n2ncc(=O)[nH]c2=O)cc1NC(=O)C1=CN(C)C(=O)C[C@H]1c1ccc(F)cc1` [Compound 107, (S)-4-(4-Fluoro-phenyl)-1-methyl-6-oxo-1,4,5,6-tetrahydro-pyridine-3-carboxylic acid [5-(3,5-dioxo-4,5-dihydro-3H-[1,2,4]triazin-2-yl)-2-methyl-phenyl]-amide], the pIC50 is on record as 6.81.

For the compound `Cc1cc(Cl)c(CN2CCOC2=O)cc1NC(=O)C1=CNC(=O)C[C@H]1c1ccc(F)cc1` [Compound 35, (S)-4-(4-Fluoro-phenyl)-6-oxo-1,4,5,6-tetrahydro-pyridine-3-carboxylic acid [4-chloro-2-methyl-5-(2-oxo-oxazolidin-3-ylmethyl)-phenyl]-amide], the pIC50 turned out to be 8.135.

The compound `CCn1c(C)nnc1-c1ccc(C)c(NC(=O)C2=CNC(=O)C[C@H]2c2ccc(F)cc2)c1` [Compound 60, (S)-4-(4-Fluoro-phenyl)-6-oxo-1,4,5,6-tetrahydro-pyridine-3-carboxylic acid [5-(4-ethyl-5-methyl-4H-[1,2,4]triazol-3-yl)-2-methyl-phenyl]-amide] gave a pIC50 of 6.535.

Take `Cc1nccc(-c2ccc(C)c(NC(=O)C3=CNC(=O)C[C@H]3c3ccc(F)cc3)c2)n1` [Compound 53, (S)-4-(4-Fluoro-phenyl)-6-oxo-1,4,5,6-tetrahydro-pyridine-3-carboxylic acid [2-methyl-5-(2-methyl-pyrimidin-4-yl)-phenyl]-amide]: the pIC50 is 7.325.

`Cc1ccc(-c2cc(C)n(C[C@H](C)O)n2)cc1NC(=O)C1=CN(C)C(=O)C[C@H]1c1ccc(F)cc1` [Compound 74, (S)-4-(4-Fluoro-phenyl)-1-methyl-6-oxo-1,4,5,6-tetrahydro-pyridine-3-carboxylic acid {5-[1-((S)-2-hydroxy-propyl)-5-methyl-1H-pyrazol-3-yl]-2-methyl-phenyl}-amide] registered a pIC50 of 7.47.

In turn, `Cc1ccc(-c2cnccn2)cc1NC(=O)C1=CNC(=O)C[C@H]1c1ccc(F)cc1` [Compound 43, (S)-4-(4-Fluoro-phenyl)-6-oxo-1,4,5,6-tetrahydro-pyridine-3-carboyxlic acid (2-methyl-5-pyrazin-2-yl-phenyl)-amide] had a pIC50 of 7.54.

Regarding `Cc1cnc(-c2ccc(C)c(NC(=O)C3=CNC(=O)C[C@H]3c3ccc(F)cc3)c2)cn1` [Compound 45, (S)-4-(4-Fluoro-phenyl)-6-oxo-1,4,5,6-tetrahydro-pyridine-3-carboxylic acid [2-methyl-5-(5-methyl-pyrazin-2-yl)-phenyl]-amide], the pIC50 was found to be 7.01.

`Cc1ccc(-c2cc(C)n(C[C@@H](C)O)n2)cc1NC(=O)C1=CN(C)C(=O)C[C@H]1c1ccc(F)cc1` [Compound 73, (S)-4-(4-Fluoro-phenyl)-1-methyl-6-oxo-1,4,5,6-tetrahydro-pyridine-3-carboxylic acid {5-[1-((R)-2-hydroxy-propyl)-5-methyl-1H-pyrazol-3-yl]-2-methyl-phenyl}-amide] displayed a pIC50 of 7.255.

Compound `Cc1ccc(-c2ccc(=O)[nH]n2)cc1NC(=O)C1=CNC(=O)C[C@H]1c1ccc(F)cc1` [Compound 99, (S)-4-(4-Fluoro-phenyl)-6-oxo-1,4,5,6-tetrahydro-pyridine-3-carboxylic acid [2-methyl-5-(6-oxo-1,6-dihydro-pyridazin-3-yl)-phenyl]-amide] gave a pIC50 of 7.515.

On to `CCc1cc(-c2ccc(C)c(NC(=O)C3=CNC(=O)C[C@H]3c3ccc(F)cc3)c2)[nH]n1` [Compound 14, (S)-4-(4-Fluoro-phenyl)-6-oxo-1,4,5,6-tetrahydro-pyridine-3-carboxylic acid [5-(5-ethyl-2H-pyrazol-3-yl)-2-methyl-phenyl]-amide], for which the pIC50 is listed as 6.913.

Regarding `Cc1ccc(-c2ccn(CCO)n2)cc1NC(=O)C1=CN(C)C(=O)C[C@H]1c1cccc(F)c1` [Compound 112, (S)-4-(3-Fluoro-phenyl)-1-methyl-6-oxo-1,4,5,6-tetrahydro-pyridine-3-carboxylic acid {5-[1-(2-hydroxy-ethyl)-1H-pyrazol-3-yl]-2-methyl-phenyl}-amide], the negative-log IC50 (pIC50) worked out at 7.645.

The compound `Cc1ccc(-c2ccc(C)c(NC(=O)C3=CNC(=O)C[C@H]3c3ccc(F)cc3)c2)nn1` [Compound 44, (S)-4-(4-Fluoro-phenyl)-6-oxo-1,4,5,6-tetrahydro-pyridine-3-carboxylic acid [2-methyl-5-(6-methyl-pyridazin-3-yl)-phenyl]-amide] registered a pIC50 of 7.567.

Compound `Cc1cc(-c2ccc(C)c(NC(=O)C3=CNC(=O)C[C@H]3c3ccc(F)cc3)c2)n(CCO)n1` [Compound 12, (S)-4-(4-Fluoro-phenyl)-6-oxo-1,4,5,6-tetrahydro-pyridine-3-carboyxlic acid {5-[2-(2-hydroxy-ethyl)-5-methyl-2H-pyrazol-3-yl]-2-methyl-phenyl}-amide] gave a pIC50 of 6.913.

Turning to `Cc1cc(-c2ccc(C)c(NC(=O)C3=CNC(=O)C[C@H]3c3cccc(F)c3)c2)n[nH]1` [Compound 22, (S)-4-(3-Fluoro-phenyl)-6-oxo-1,4,5,6-tetrahydro-pyridine-3-carboxylic acid [2-methyl-5-(5-methyl-1H-pyrazol-3-yl)-phenyl]-amide], the pIC50 is reported as 7.75.

The compound `Cc1cc(-c2cc(NC(=O)C3=CNC(=O)C[C@H]3c3ccc(F)cc3)ccc2Cl)n[nH]1` [Compound 36, (S)-4-(4-Fluoro-phenyl)-6-oxo-1,4,5,6-tetrahydro-pyridine-3-carboxylic acid [4-chloro-3-(5-methyl-1H-pyrazol-3-yl)-phenyl]-amide] yielded a pIC50 of 5.92.

The term pIC50 denotes the negative decadic logarithm of the IC50, by convention in mol/L. A lower pIC50 goes with a large IC50.
